# In patent publication US20230085307A1, “PYRIDAZINONE COMPOUND AND HERBICIDE” (NISSAN CHEMICAL CORPORATION, priority 2019, published 2023):
# Experiments:
# persian speedwell [1] = experiment: Test Example 4: herbicidal effect by soil treatment (Table 19, symbol R); assay type: in vivo, Persian speedwell (Veronica persica); details: amount of applied herbicide 320 g/ha
# Summary of the method: (§1)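 Soil-surface application: an emulsion agent diluted with water to the predetermined dose is sprayed uniformly over seeds lying under roughly 1.5 cm of sterilized diluvial soil. Boxes stay in a greenhouse at 25° C. to 30° C. Three weeks later, each species is graded on previously defined criteria.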
# blackgrass [2] = experiment: Test Example 4: herbicidal effect by soil treatment (Table 19, symbol J); assay type: in vivo, blackgrass (Alopecurus myosuroides); details: amount of applied herbicide 320 g/ha
# Summary of the method: as §1
# oval-leafed pondweed = experiment: Test Example 1: herbicidal activity, application before weed generation under submerged conditions (Table 16, symbol C); assay type: in vivo, oval-leafed pondweed (Monochoria vaginalis); details: amount of applied herbicide 320 g/ha
# Summary of the method: (§2)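 Submerged Wagner pots (alluvial soil, 4 cm water) sown with weed seeds and planted with 2.5-leaf rice seedlings; emulsifiable concentrate diluted in water applied to water surface on sowing day. Held in greenhouse at 25-30 °C; injury scored 0-5 by herbicidal rate after three weeks.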
# windgrass [3] = experiment: Test Example 4: herbicidal effect by soil treatment (Table 19, symbol L); assay type: in vivo, windgrass (Apera spica-venti); details: amount of applied herbicide 320 g/ha
# Summary of the method: as §1
# chickweed [4] = experiment: Test Example 4: herbicidal effect by soil treatment (Table 19, symbol P); assay type: in vivo, common chickweed (Stellaria media); details: amount of applied herbicide 320 g/ha
# Summary of the method: as §1
# lambsquarters [5] = experiment: Test Example 4: herbicidal effect by soil treatment (Table 19, symbol O); assay type: in vivo, lambsquarters (Chenopodium album); details: amount of applied herbicide 320 g/ha
# Summary of the method: as §1
# Italian ryegrass [6] = experiment: Test Example 5: herbicidal effect by foliage application, plastic box (Table 20, symbol K); assay type: in vivo, Italian ryegrass (Lolium multiflorum); details: 320 g/ha, foliage application after 14-day growth, evaluated three weeks after application
# Summary of the method: (§3)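 Sow seeds spot-wise in sterilized diluvial soil; cover with ~1.5 cm soil. Grow 14 days in greenhouse, 25° C. to 30° C. Spray foliage with emulsion diluted to predetermined amount. Rate effect after 3 weeks.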
# late watergrass = experiment: Test Example 1: herbicidal activity, application before weed generation under submerged conditions (Table 16, symbol A); assay type: in vivo, late watergrass (Echinochloa oryzicola); details: amount of applied herbicide 320 g/ha
# Summary of the method: as §2
# chickweed [7] = experiment: Test Example 5: herbicidal effect by foliage application, plastic box (Table 20, symbol P); assay type: in vivo, common chickweed (Stellaria media); details: 320 g/ha, foliage application after 14-day growth, evaluated three weeks after application
# Summary of the method: as §3
# barnyard grass [8] = experiment: Test Example 5: herbicidal effect by foliage application, plastic box (Table 20, symbol H); assay type: in vivo, barnyard grass (Echinochloa crus-galli); details: 320 g/ha, foliage application after 14-day growth, evaluated three weeks after application
# Summary of the method: as §3
# Japanese bulrush = experiment: Test Example 1: herbicidal activity, application before weed generation under submerged conditions (Table 16, symbol B); assay type: in vivo, Japanese bulrush (Schoenoplectus juncoides); details: amount of applied herbicide 320 g/ha
# Summary of the method: as §2
# Chinese sprangletop = experiment: Test Example 3: herbicidal effect by foliage application, Wagner pot (Table 18, symbol D); assay type: in vivo, chinese sprangletop (Leptochloa chinensis); details: 320 g/ha
# Summary of the method: (§4)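 Plants were sown in alluvial soil held under 0.1–0.5 cm standing water and grown 14 days in a greenhouse at 25–30 °C. An emulsifiable formulation, water-diluted to the set dose, was then sprayed onto the foliage, and effects were scored three weeks later using previously defined criteria.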
# southern crabgrass [9] = experiment: Test Example 5: herbicidal effect by foliage application, plastic box (Table 20, symbol F); assay type: in vivo, southern crabgrass (Digitaria ciliaris); details: 320 g/ha, foliage application after 14-day growth, evaluated three weeks after application
# Summary of the method: as §3
# Italian ryegrass [10] = experiment: Test Example 4: herbicidal effect by soil treatment (Table 19, symbol K); assay type: in vivo, Italian ryegrass (Lolium multiflorum); details: amount of applied herbicide 320 g/ha
# Summary of the method: as §1
# velvetleaf [11] = experiment: Test Example 4: herbicidal effect by soil treatment (Table 19, symbol M); assay type: in vivo, velvetleaf (Abutilon theophrasti); details: amount of applied herbicide 320 g/ha
# Summary of the method: as §1
# green foxtail [12] = experiment: Test Example 5: herbicidal effect by foliage application, plastic box (Table 20, symbol G); assay type: in vivo, green foxtail (Setaria viridis); details: 320 g/ha, foliage application after 14-day growth, evaluated three weeks after application
# Summary of the method: as §3
# persian speedwell [13] = experiment: Test Example 5: herbicidal effect by foliage application, plastic box (Table 20, symbol R); assay type: in vivo, Persian speedwell (Veronica persica); details: 320 g/ha, foliage application after 14-day growth, evaluated three weeks after application
# Summary of the method: as §3
# green foxtail [14] = experiment: Test Example 4: herbicidal effect by soil treatment (Table 19, symbol G); assay type: in vivo, green foxtail (Setaria viridis); details: amount of applied herbicide 320 g/ha
# Summary of the method: as §1
# rice flat sedge = experiment: Test Example 3: herbicidal effect by foliage application, Wagner pot (Table 18, symbol E); assay type: in vivo, rice flat sedge (Cyperus iria); details: 320 g/ha
# Summary of the method: as §4
# blackgrass [15] = experiment: Test Example 5: herbicidal effect by foliage application, plastic box (Table 20, symbol J); assay type: in vivo, blackgrass (Alopecurus myosuroides); details: 320 g/ha, foliage application after 14-day growth, evaluated three weeks after application
# Summary of the method: as §3
# southern crabgrass [16] = experiment: Test Example 4: herbicidal effect by soil treatment (Table 19, symbol F); assay type: in vivo, southern crabgrass (Digitaria ciliaris); details: amount of applied herbicide 320 g/ha
# Summary of the method: as §1
# wild oat [17] = experiment: Test Example 5: herbicidal effect by foliage application, plastic box (Table 20, symbol I); assay type: in vivo, wild oat (Avena fatua); details: 320 g/ha, foliage application after 14-day growth, evaluated three weeks after application
# Summary of the method: as §3
# redroot pigweed [18] = experiment: Test Example 4: herbicidal effect by soil treatment (Table 19, symbol N); assay type: in vivo, redroot pigweed (Amaranthus retroflexus); details: amount of applied herbicide 320 g/ha
# Summary of the method: as §1
# barnyard grass [19] = experiment: Test Example 3: herbicidal effect by foliage application, Wagner pot (Table 18, symbol H); assay type: in vivo, barnyard grass (Echinochloa crus-galli); details: 320 g/ha
# Summary of the method: as §4
# redroot pigweed [20] = experiment: Test Example 5: herbicidal effect by foliage application, plastic box (Table 20, symbol N); assay type: in vivo, redroot pigweed (Amaranthus retroflexus); details: 320 g/ha, foliage application after 14-day growth, evaluated three weeks after application
# Summary of the method: as §3
# velvetleaf [21] = experiment: Test Example 5: herbicidal effect by foliage application, plastic box (Table 20, symbol M); assay type: in vivo, velvetleaf (Abutilon theophrasti); details: 320 g/ha, foliage application after 14-day growth, evaluated three weeks after application
# Summary of the method: as §3
# windgrass [22] = experiment: Test Example 5: herbicidal effect by foliage application, plastic box (Table 20, symbol L); assay type: in vivo, windgrass (Apera spica-venti); details: 320 g/ha, foliage application after 14-day growth, evaluated three weeks after application
# Summary of the method: as §3
# wild oat [23] = experiment: Test Example 4: herbicidal effect by soil treatment (Table 19, symbol I); assay type: in vivo, wild oat (Avena fatua); details: amount of applied herbicide 320 g/ha
# Summary of the method: as §1
# lambsquarters [24] = experiment: Test Example 5: herbicidal effect by foliage application, plastic box (Table 20, symbol O); assay type: in vivo, lambsquarters (Chenopodium album); details: 320 g/ha, foliage application after 14-day growth, evaluated three weeks after application
# Summary of the method: as §3
# barnyard grass [25] = experiment: Test Example 4: herbicidal effect by soil treatment (Table 19, symbol H); assay type: in vivo, barnyard grass (Echinochloa crus-galli); details: amount of applied herbicide 320 g/ha
# Summary of the method: as §1
structure (smiles),measurement,setting,value
COc1ccc2c(-c3c(O)c(C)nn(C)c3=O)c(-c3ccc(OC(F)F)cc3)sc2c1 [3-159],"Herbicidal effect by soil treatment, R: persian speedwell",persian speedwell [1],3 (Herbicidal rate of 40% or more and less than 70%)
same,"Herbicidal effect by soil treatment, J: blackgrass",blackgrass [2],0 (Herbicidal rate of 5% or less (almost no effect))
same,"Herbicidal effect, C: oval-leafed pondweed",oval-leafed pondweed,3 (Herbicidal rate of 40% or more and less than 70%)
same,"Herbicidal effect by soil treatment, L: windgrass",windgrass [3],0 (Herbicidal rate of 5% or less (almost no effect))
same,"Herbicidal effect by soil treatment, P: chickweed",chickweed [4],0 (Herbicidal rate of 5% or less (almost no effect))
same,"Herbicidal effect by soil treatment, O: lambsquarters",lambsquarters [5],4 (Herbicidal rate of 70% or more and less than 90%)
same,herbicidal effect on K: Italian ryegrass (evaluation grade 0-5),Italian ryegrass [6],4 (Herbicidal rate of 70% or more and less than 90%)
same,"Herbicidal effect, A: late watergrass",late watergrass,0 (Herbicidal rate of 5% or less (almost no effect))
same,herbicidal effect on P: chickweed (evaluation grade 0-5),chickweed [7],5 (Herbicidal rate of 90% or more (almost completely withered))
same,herbicidal effect on H: barnyard grass (evaluation grade 0-5),barnyard grass [8],0 (Herbicidal rate of 5% or less (almost no effect))
same,"Herbicidal effect, B: Japanese bulrush",Japanese bulrush,3 (Herbicidal rate of 40% or more and less than 70%)
same,herbicidal effect on Chinese sprangletop (D),Chinese sprangletop,0 (Herbicidal rate of 5% or less (almost no effect))
same,herbicidal effect on F: southern crabgrass (evaluation grade 0-5),southern crabgrass [9],0 (Herbicidal rate of 5% or less (almost no effect))
same,"Herbicidal effect by soil treatment, K: Italian ryegrass",Italian ryegrass [10],0 (Herbicidal rate of 5% or less (almost no effect))
same,"Herbicidal effect by soil treatment, M: velvetleaf",velvetleaf [11],1 (Herbicidal rate of 5% or more and less than 20%)
same,herbicidal effect on G: green foxtail (evaluation grade 0-5),green foxtail [12],0 (Herbicidal rate of 5% or less (almost no effect))
same,herbicidal effect on R: persian speedwell (evaluation grade 0-5),persian speedwell [13],5 (Herbicidal rate of 90% or more (almost completely withered))
same,"Herbicidal effect by soil treatment, G: green foxtail",green foxtail [14],0 (Herbicidal rate of 5% or less (almost no effect))
same,herbicidal effect on rice flat sedge (E),rice flat sedge,3 (Herbicidal rate of 40% or more and less than 70%)
same,herbicidal effect on J: blackgrass (evaluation grade 0-5),blackgrass [15],3 (Herbicidal rate of 40% or more and less than 70%)
same,"Herbicidal effect by soil treatment, F: southern crabgrass",southern crabgrass [16],0 (Herbicidal rate of 5% or less (almost no effect))
same,herbicidal effect on I: wild oat (evaluation grade 0-5),wild oat [17],0 (Herbicidal rate of 5% or less (almost no effect))
same,"Herbicidal effect by soil treatment, N: redroot pigweed",redroot pigweed [18],4 (Herbicidal rate of 70% or more and less than 90%)
same,herbicidal effect on barnyard grass (H),barnyard grass [19],2 (Herbicidal rate of 20% or more and less than 40%)
same,herbicidal effect on N: redroot pigweed (evaluation grade 0-5),redroot pigweed [20],5 (Herbicidal rate of 90% or more (almost completely withered))
same,herbicidal effect on M: velvetleaf (evaluation grade 0-5),velvetleaf [21],4 (Herbicidal rate of 70% or more and less than 90%)
same,herbicidal effect on L: windgrass (evaluation grade 0-5),windgrass [22],0 (Herbicidal rate of 5% or less (almost no effect))
same,"Herbicidal effect by soil treatment, I: wild oat",wild oat [23],0 (Herbicidal rate of 5% or less (almost no effect))
same,herbicidal effect on O: lambsquarters (evaluation grade 0-5),lambsquarters [24],5 (Herbicidal rate of 90% or more (almost completely withered))
same,"Herbicidal effect by soil treatment, H: barnyard grass",barnyard grass [25],0 (Herbicidal rate of 5% or less (almost no effect))
